Measured values from patent publication US9795652B2, “Use of endogenous antioxidant proteins in the treatment of stroke” (University of South Florida, priority 2010, dated 2017).

Tested on: primary rat oligodendrocyte cultures
Test: LIF protection of oligodendrocytes from oxygen glucose deprivation (extracellular LDH)
Format: cell-based
Conditions: 24 hours OGD
Method: OL cell death in culture was determined using the LDH assay (Takara Bio, Inc., Madison, Wis.), since cell death is associated with LDH release through the plasma membrane. LDH is present in a large number of tissues, like the heart, liver, kidney, skeletal muscle, brain, blood cells, and lungs. Tissue breakdown releases LDH, thereby elevating circulating LDH and indicating tissue damage. Briefly, 100 μl of tissue culture media from each experimental group was added to a 96-well plate and 100 μl of LDH reagent was added to each well. Plates were incubated for 30 min at 25° C. and absorbances were read on a microplate reader at a 548 nm wavelength. The media from HUCB cell only cultures served as a control for HUCB cell death. The absorbance of HUCB cell only media, as well as the absorbance of media only, was subtracted from the total absorbance of the OL wells to eliminate background LDH activity.
An oxygen deprivation model was used to test the effect of LIF on primary rat oligodendrocyte cultures. Cells were grown in neurobasal medium containing B27 and […] glutamine prior to OGD. To simulate ischemic conditions, the neurobasal medium was replaced with DMEM containing no glucose (OGD). The cells were then exposed to 1% O2, 5% CO2 and 94% N2 for 24 hours. No LIF (OGD) or LIF was added to the cells, at the concentrations indicated. […]

## leukemia inhibitory factor [LIF]
LIF 100 pg
  extracellular LDH levels compared to untreated (OGD): about 47.6%
LIF 50 ng
  extracellular LDH compared to untreated cells: approximately 2.7%
